The series can be described thus: Solubility of toremifene citrate in solvent (reference). The series is classed as physicochemical.

Structures are written as SMILES. Where a name gives a salt, the structure may show the parent alone. Read-outs that look alike come from different tables or passages of the source.

The values below come from patent US6887888B2, “Soluble compositions of triphenylethylene antiestrogens” (Orion Corporation, priority 1998, dated 2005).

By solubility is commonly meant the dissolved amount per volume that the medium holds.

In the case of `CN(C)CCOc1ccc(/C(=C(/CCCl)c2ccccc2)c2ccccc2)cc1` [toremifene citrate], the solubility (0.1 M HCl, simulated gastric fluid, read-out: Solubility in 0.1 M HCl) was approximately 30 µg/mL and the solubility (ethanol, organic solvent or mixture, read-out: Solubility in ethanol) is approximately 3000 µg/mL.
